Where two headings read alike, the source gives them in different places.
Columns and labels:
R-FOD-II = test: Stabilization of enzyme reacting at least with glycated amino acid; type: biochemical; conditions: for stabilization effect on glycated amino acid assay reagent (relative sensitivity): without stabilizer 30%; for decrease in performance of glycated amino acid assay reagent: storage for four weeks at 37° C.; for storage stability effect: stored in a liquid state in a refrigerator
Method: 8 μl of a sample was added to 240 μl of the proteolytic reagent incubated at 37° C. […] A relative sensitivity for the experiment using the reagent containing a stabilizer to the experiment using the reagent not containing a stabilizer was calculated assuming that ΔA0 obtained using the reagent not containing a stabilizer and used without storing is 100%.

albumin = target: T1, albumin (Homo sapiens, UniProt P02768); test: Albumin assay by BCP method after pretreatment with protein denaturing agent and/or compound having S—S bond; conditions: for albumin value by BCP method, sample GA: immunological method 8.1, no pretreatment 7.9; for albumin value by BCP method, sample NGA: immunological method 37.5, no pretreatment 36.1; for albumin value by BCP method, sample Blood serum of patients: immunological method 40.5, no pretreatment 36.2
T1 construct: from tissue; host or cells: human blood serum (healthy persons, patients; albumin purified with boric acid-immobilized resin)
T1 sequence (P02768 25-609): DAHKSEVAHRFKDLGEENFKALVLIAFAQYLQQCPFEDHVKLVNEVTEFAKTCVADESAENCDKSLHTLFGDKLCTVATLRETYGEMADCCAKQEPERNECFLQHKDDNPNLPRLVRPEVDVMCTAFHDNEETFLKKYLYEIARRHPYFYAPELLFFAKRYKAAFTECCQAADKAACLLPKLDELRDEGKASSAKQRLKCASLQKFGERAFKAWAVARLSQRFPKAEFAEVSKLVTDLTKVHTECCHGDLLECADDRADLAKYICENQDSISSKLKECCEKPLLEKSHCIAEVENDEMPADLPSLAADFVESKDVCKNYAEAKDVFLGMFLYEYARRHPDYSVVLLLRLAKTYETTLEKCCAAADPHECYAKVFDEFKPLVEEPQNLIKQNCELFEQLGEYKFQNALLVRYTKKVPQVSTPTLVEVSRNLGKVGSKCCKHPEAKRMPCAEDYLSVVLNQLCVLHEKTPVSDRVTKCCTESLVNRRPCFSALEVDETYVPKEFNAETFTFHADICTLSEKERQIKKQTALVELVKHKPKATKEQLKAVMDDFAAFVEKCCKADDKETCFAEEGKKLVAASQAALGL
Method: The following compounds 1)-9) were used as the protein denaturing agent and/or the compound having S—S bond in the R-1 pretreatment reagent. • 1) 6,6′-dithiodinicotinic acid: 100 mM • 2) 3,3′-dithiodipropionic acid: 100 mM • 3) 2,2′-dithiodibenzoic acid: 100 mM • 4) 4,4′-dithiodimorpholine: 100 mM • 5) DTNB (50 mM) • 6) DDD (33 mM) • 7) 2-PDS (25 mM) • 8) 4-PDS (50 mM) • 9) SDS (0.3%) • 1)-5) manufactured by Wako Pure Chemical Industries, Ltd. • 6)-9) manufactured by Dojindo Laboratories <Samples>
Glycated lbumin, non-glycated albumin, blood serum of healthy persons, and blood serum of patients were used as samples, and distilled water was used as a blank. Glycated albumin and non-glycated albumin were obtained from human blood serum, albumin was purified by known method and using a boric acid-immobilized resin.
2 μl of a sample was added to 160 μl of the pretreatment reagent incubated at 37° C. […] Absorbance at 600 nm was measured before the addition of the albumin coloring reagent and five minutes after the addition of the albumin coloring reagent. A calibration curve was prepared using distilled water and a sample with a known albumin concentration instead of the sample. A sample was separately assayed by an immune method using a latex reagent (LX reagent, Alb-II, manufactured by Eiken Chemical Co., Ltd.) as a control.

Protease type-XXIV = test: Screening of globulin component-selective protease inhibitors (HSA substrate with/without γ-globulin); type: biochemical, Bacillus; conditions: additive concentration 1.0%; control 23.8
Source text: Using protease type-XXIV (manufactured by Sigma-Aldrich Co.) having high reactivity with the HSA substrate solution, components that decrease the protease reaction with the above globulin substrate solutions were screened based on the HSA substrate solution.
In the R-1 proteolytic reagent, as the deoxycholic acid amide, bisgluconamidopropyldeoxycholamide was used; as the cholic acid amide, 3-[(3-cholamidopropyl)dimethvlammonio]propane sulfonic acid, 3-[(3-cholamidopropyl)dimethylammonio]-2-hydroxypropane sulfonic acid, or bisgluconamidopropylcholamide was used; as the quaternary ammonium salt, benzyltriethylan chloride or benzyltri-n-butylammonium chloride was used; and as quatemary ammonium salt-type cationic surfactant, lauryltrimethylammonium chloride or lauryldimethylamine oxide was used.
• 1. HSA substrate solution: Albumin Human: 40 mg/ml, GA %=10.5% [manufactured by Wako Pure Chemical Industries, Ltd., the albumin concentration in the substrate solution was assayed using an albumin assay kit (albumin II-HA Test Wako; manufactured by Wako Pure Chemical Industries, Ltd.). GA % was assayed using a glycated albumin analyzer (GAA-2000, manufactured by ARKRAY, Inc.). • 2. γ-globulin addition substrate solution, 17.0 mg/ml of γ-globulin [γ-Globulins Human (manufactured by Sigma-Aldrich Co.), Fructosamine value=34 μM] was added to the above HSA substrate solution. <Reaction Procedure>
Absorbances at a wavelength of 546 nm were measured before and after the addition of R-2. The difference of the two measurements was regarded as the absorbance change. The same procedure was conducted using distilled water instead of the substrate to prepare a blank sample. In addition, a reaction solution without the addition of the globulin-selective protease inhibitor was used as a control.
ΔA (HSA) was calculated by subtracting the absorbance change of the blank sample from the absorbance change obtained for the HSA substrate solution. ΔA(+γ-globulin) was calculated by subtracting the absorbance change of the blank sample from the absorbance change obtained for the substrate solution to which γ-globulin was added. Effect of γ-globulin addition=(ΔA(+γ-globulin)−ΔA(HSA))/ΔA(HSA)×100(%)

[1] = stored at 37° C. for two days, FIG. 6
[2] = pretreatment reagent at concentration of b299
[3] = pretreatment reagent at concentration of b299, immunological method 43.0, no pretreatment 38.4

stabilization effect on glycated amino acid assay reagent (relative sensitivity) (R-FOD-II; [1]) | albumin value by BCP method, sample GA (albumin; [2]) | albumin value by BCP method, sample NGA (albumin; [2]) | albumin value by BCP method, sample Blood serum of patients (albumin; [2]) | SMILES | further results
stabilization effect |  |  |  | OC[C@@H](O)[C@@H](O)[C@H](O)[C@@H](O)CO [sorbitol, Sorbitol] | 
 |  |  |  | C[C@H](CCC(=O)N(CCCNC(=O)[C@H](O)[C@@H](O)[C@H](O)[C@H](O)CO)CCCNC(=O)[C@H](O)[C@@H](O)[C@H](O)[C@H](O)CO)[C@H]1CC[C@H]2[C@@H]3CC[C@@H]4C[C@H](O)CC[C@]4(C)[C@H]3C[C@H](O)[C@]12C [N,N-Bis(3-D-gluconamidopropyl)deoxycholamido] | Effect of γ-globulin (%) (Protease type-XXIV): 19.9%
 |  |  |  | CCCC[N+](CCCC)(CCCC)Cc1ccccc1.[Cl-] [Benzyltributylammonium chloride] | Effect of γ-globulin (%) (Protease type-XXIV): 15.1%
 |  |  |  | CC(CCC(=O)NCCC[N+](C)(C)CC(O)CS(=O)(=O)[O-])C1CCC2C3C(O)CC4CC(O)CCC4(C)C3CC(O)C12C (stereo not drawn) [3-[3-cholamidopropyl)dimethylammonio]-2-hydroxypropane sulfonic acid] | Effect of γ-globulin (%) (Protease type-XXIV): 18.0%
 | 7.8 | 36.8 | 36.8 | c1ccc(SSc2ccccn2)nc1 [Reagent 7, 2,2′-dithiopyridine] | effect of pretreatment on decreasing deviation from the immune method (albumin): particularly remarkable; albumin value by BCP method, sample Blood serum of healthy parsons (albumin; [3]): 38.9
 |  |  |  | C[C@H](CCC(=O)N(CCCNC(=O)[C@H](O)[C@@H](O)[C@H](O)[C@H](O)CO)CCCNC(=O)[C@H](O)[C@@H](O)[C@H](O)[C@H](O)CO)[C@H]1CC[C@H]2[C@@H]3[C@H](O)C[C@@H]4C[C@H](O)CC[C@]4(C)[C@H]3C[C@H](O)[C@]12C [N,N-Bis(3-D-gluconamidopropyl)cholamido] | Effect of γ-globulin (%) (Protease type-XXIV): 21.0%
 | 8.7 | 38.4 | 35.5 | O=C(O)c1cc(SSc2ccc([N+](=O)[O-])c(C(=O)O)c2)ccc1[N+](=O)[O-] [Reagent 5, 5,5′-dithiobis-(2-nitrobenzoic acid)] | effect of pretreatment on decreasing deviation from the immune method (albumin): particularly remarkable; albumin value by BCP method, sample Blood serum of healthy parsons (albumin; [3]): 38.3
stabilization effect |  |  |  | C[C@H](N)C(=O)O [L-alanine, L-Alanine] | decrease in performance of glycated amino acid assay reagent (R-FOD-II): almost no decrease in performance; storage stability effect (R-FOD-II): one or more years
 | 7.7 | 38.0 | 35.0 | O=C(O)c1ccccc1SSc1ccccc1C(=O)O [Reagent 3, 2,2′-dithiodibenzoic acid] | effect of pretreatment on decreasing deviation from the immune method (albumin): particularly remarkable; albumin value by BCP method, sample Blood serum of healthy parsons (albumin; [3]): 40.1
stabilization effect |  |  |  | OC[C@H]1O[C@H](O[C@H]2O[C@H](CO)[C@@H](O)[C@H](O)[C@H]2O)[C@H](O)[C@@H](O)[C@@H]1O [trehalose, Trehalose] | 
stabilization effect |  |  |  | CC(C)[C@H](N)C(=O)O [L-valine, L-Valine] | 
 | 7.9 | 35.7 | 37.0 | O=C(O)CCSSCCC(=O)O [Reagent 2, 3,3′-dithiodipropionic acid] | albumin value by BCP method, sample Blood serum of healthy parsons (albumin; [3]): 37.9
 |  |  |  | CC[N+](CC)(CC)Cc1ccccc1.[Cl-] [Benzyltriethylammonium chloride] | Effect of γ-globulin (%) (Protease type-XXIV): 16.5%
stabilization effect |  |  |  | O=C(O)[C@@H]1CCCN1 [L-proline, L-Proline] | 
stabilization effect |  |  |  | OC[C@@H](O)[C@@H](O)[C@H](O)[C@H](O)CO [mannitol, Mannitol] | 
 |  |  |  | C[C@H](CCC(=O)O)[C@H]1CC[C@H]2[C@@H]3[C@H](O)C[C@@H]4C[C@H](O)CC[C@]4(C)[C@H]3C[C@H](O)[C@]12C [Cholic acid] | Effect of γ-globulin (%) (Protease type-XXIV): 23.0%
 | 7.6 | 36.9 | 37.7 | Oc1ccc2cc(SSc3ccc4cc(O)ccc4c3)ccc2c1 [Reagent 6, 2,2′-dihydroxy-6,6′-dinaphthyl disulfide] | effect of pretreatment on decreasing deviation from the immune method (albumin): particularly remarkable; albumin value by BCP method, sample Blood serum of healthy parsons (albumin; [3]): 39.1
 |  |  |  | CCCCCCCCCCCC[N+](C)(C)C.[Cl-] [Lauryltrimethylammonium chloride] | Effect of γ-globulin (%) (Protease type-XXIV): 16.7%
 |  |  |  | CC[N+](CC)(CC)Cc1ccccc1.[Br-] [Benzyltriethylammonium bromide] | Effect of γ-globulin (%) (Protease type-XXIV): 22.9%
stabilization effect |  |  |  | CNCC(=O)O [sarcosine, Sarcosine] | decrease in performance of glycated amino acid assay reagent (R-FOD-II): almost no decrease in performance; strength of stabilization effect (R-FOD-II; [1]): particularly strong stabilization effect; storage stability effect (R-FOD-II): one or more years
 | 7.7 | 39.5 | 31.3 | C1CN(SSN2CCOCC2)CCO1 [Reagent 4, 4,4′-dithiodimorpholine] | effect of pretreatment on decreasing deviation from the immune method (albumin): particularly remarkable; albumin value by BCP method, sample Blood serum of healthy parsons (albumin; [3]): 41.3
 | 7.5 | 36.2 | 36.2 | c1cc(SSc2ccncc2)ccn1 [Reagent 8, 4,4′-dithiopyridine] | effect of pretreatment on decreasing deviation from the immune method (albumin): particularly remarkable; albumin value by BCP method, sample Blood serum of healthy parsons (albumin; [3]): 38.8
stabilization effect |  |  |  | OC[C@H]1O[C@@](CO)(O[C@H]2O[C@H](CO)[C@@H](O)[C@H](O)[C@H]2O)[C@@H](O)[C@@H]1O [sucrose, Sucrose] | 
stabilization effect |  |  |  | N[C@@H](CCC(=O)O)C(=O)O [L-glutamic acid, L-Glutamic acid] | 
stabilization effect |  |  |  | NC(=O)CC[C@H](N)C(=O)O [L-glutamine, L-Glutamine] | 

SMILES | stabilization effect on glycated amino acid assay reagent (relative sensitivity) (R-FOD-II; [1]) | albumin value by BCP method, sample GA (albumin; [2]) | albumin value by BCP method, sample NGA (albumin; [2]) | albumin value by BCP method, sample Blood serum of patients (albumin; [2]) | further results
O=C(O)c1ccc(SSc2ccc(C(=O)O)cn2)nc1 [Reagent 1, 6,6′-dithiodinicotinic acid] |  | 7.6 | 35.6 | 36.7 | albumin value by BCP method, sample Blood serum of healthy parsons (albumin): 38.2
[Cl-].[Cl-].[Mg+2] [magnesium chloride, Magnesium chloride] | stabilization effect |  |  |  | 
N.N.O=S(=O)(O)O [ammonium sulfate, Ammonium sulfate] | stabilization effect |  |  |  | 
CCCCCCCCCCCCOS(=O)(=O)[O-].[Na+] [Reagent 9, sodium lauryl sulfate] |  | 7.8 | 37.4 | 40.7 | albumin value by BCP method, sample Blood serum of healthy parsons (albumin): 43.7; effect of pretreatment on decreasing deviation from the immune method (albumin): particularly remarkable
NCCCC[C@H](N)C(=O)O [L-lysine, L-Lysine] | stabilization effect |  |  |  | 
